Experimental data: US20240067632A1, “WEE1 Degrading Compounds and Uses Thereof” (Bristol-Myers Squibb Company, priority 2022, published 2024)
Read-outs that look alike come from different tables or passages of the source.

Columns and labels:
[1] = target: T1, WEE1 (Homo sapiens, UniProt P30291+Q96SW2); test: WEE1-ePL degradation assay (LentiX-WEE1-ePL-GSPT1-ND cells, InCELL Hunter luminescence, 4 h); format: cell-based; conditions: 293T-LentiX WEE1-ePL cells; for DC50: read-out: 293T-LentiX WEE1-ePL Degradation 4 hr (EC50)
T1 construct: C-terminal ePL-tagged (DiscoverX, Fremont, CA) full-length WEE1 expression construct; expressed in transfected cells; host or cells: LentiX-HEK293T (Invitrogen), lentiviral transduction; co-expressing GSPT1-GN (G576N, lacking the first 158 amino acids)
Summary of the method: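 Degradation EC50 was fitted by a four-parameter logistic model, with the upper limit taken from DMSO wells. Luminescence was read with InCELL Hunter reagent after 30 min at room temperature, following a 4 h, 37° C exposure of 2500 cells/well. Cells were LentiX-HEK293T carrying ePL-tagged full-length WEE1, dosed in 10 points (3-fold) from 1 or 10 uM.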

[2] = system: MKN45 cells; test: MKN45 cell proliferation assay (Cell-Titer-Glo, 120 h); format: cell-based; conditions: for EC50: Homo sapiens, MKN-45, 120 h, Cell-Titer-Glo, read-out: MKN45 Cell Prolif. 120 hr (EC50); for MKN45 Cell Prolif. 120 hr (Ymin-Obs): minimal percent of DMSO control observed in the concentrations tested
Summary of the method: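 Cells seeded at 400/well onto pre-printed 10-point half-log dilutions (top 1 or 10 uM, 0.1% DMSO final), in triplicate, and grown 120 h at 37 C. Viability by Cell-Titer-Glo luminescence, blank-subtracted and normalised to DMSO; EC50 from four-parameter logistic fit, with observed minimal % of control recorded as Ymin-obs.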

[3] = lower limit of the fit (0 = luciferase inhibitor, Ymax = DMSO control)
[4] = lower limit of the fit (Ymin=0 luciferase inhibitor, Ymax DMSO control)

Row | Compound | 293T-LentiX WEE1-ePL Degradation 4 hr (Ymin) [1, 3] | DC50 [1] [nM] | EC50 ([2]; growth inhibition) [nM] | 293T-LentiX WEE1-ePL Degradation 4 hr (Ymin) [1, 4] | EC50 [2] [nM] | MKN45 Cell Prolif. 120 hr (Ymin-Obs) [2]
1 | CN1CCCc2c(CN3CC[C@H](Oc4ccc5c(c4)CN(C4CCC(=O)NC4=O)C5=O)C3)cncc21 (stereo partly drawn) [3-(5-{[(3S)-1-[(1-methyl-1,2,3,4-tetrahydro-1,7-naphthyridin-5-yl)methyl]pyrrolidin-3-yl]oxy}-1-oxo-2,3-dihydro-1H-isoindol-2-yl)piperidine-2,6-dione] | 40 | 19.6 | 313 |  |  | 43.26
2 | Cc1nc2ccccc2cc1CN1CC[C@H](Oc2ccc3c(c2)CN(C2CCC(=O)NC2=O)C3=O)C1 (stereo partly drawn) [3-(5-{[(3S)-1-[(2-methylquinolin-3-yl)methyl]pyrrolidin-3-yl]oxy}-1-oxo-2,3-dihydro-1H-isoindol-2-yl)piperidine-2,6-dione] | 34.08 | 8.04 | 34.8 |  |  | 11.29
3 | C[C@@H]1c2cc(O[C@H]3CCN(Cc4ccc5nc(N6CCOCC6)ncc5c4)C3)ccc2C(=O)N1[C@H]1CCC(=O)NC1=O [(3S)-3-[(3R)-3-methyl-5-{[(3S)-1-{[2-(morpholin-4-yl)quinazolin-6-yl]methyl}pyrrolidin-3-yl]oxy}-1-oxo-2,3-dihydro-1H-isoindol-2-yl]piperidine-2,6-dione] |  | 4.84 |  | 40.43 | 30.8 | 36.11
4 | O=C1CC[C@H](N2Cc3cc(O[C@H]4CCN(Cc5cc(C(F)(F)F)c6nc(C7CCOCC7)ccc6c5)C4)ccc3C2=O)C(=O)N1 [(3S)-3-(5-{[(3S)-1-{[2-(oxan-4-yl)-8-(trifluoromethyl)quinolin-6-yl]methyl}pyrrolidin-3-yl]oxy}-1-oxo-2,3-dihydro-1H-isoindol-2-yl)piperidine-2,6-dione] |  | 2.48 |  | 42.83 | 2.99 | 2.25
5 | O=C1CCC(N2Cc3ccc(O[C@H]4CCN(Cc5cc6ccccc6cn5)C4)cc3C2=O)C(=O)N1 (stereo partly drawn) [3-(6-{[(3S)-1-[(isoquinolin-3-yl)methyl]pyrrolidin-3-yl]oxy}-1-oxo-2,3-dihydro-1H-isoindol-2-yl)piperidine-2,6-dione] | 93.8 |  | 0.399 |  |  | 82.45
6 | CN(C(=O)C1CCOCC1)c1ccc2cc(CN3CC[C@H](Oc4ccc5c(c4)CN(C4CCC(=O)NC4=O)C5=O)C3)ccc2n1 (stereo partly drawn) [N-(6-{[(3S)-3-{[2-(2,6-dioxopiperidin-3-yl)-1-oxo-2,3-dihydro-1H-isoindol-5-yl]oxy}pyrrolidin-1-yl]methyl}quinolin-2-yl)-N-methyloxane-4-carboxamide] | 32.5 | 5.04 | 3.35 |  |  | 6.6
7 | COCc1ccc2cc(CN3CC[C@H](Oc4ccc5c(c4)CN(C4CCC(=O)NC4=O)C5=O)C3)ncc2c1 (stereo partly drawn) [3-(5-{[(3S)-1-{[7-(methoxymethyl)isoquinolin-3-yl]methyl}pyrrolidin-3-yl]oxy}-1-oxo-2,3-dihydro-1H-isoindol-2-yl)piperidine-2,6-dione] | 30 | 1.42 | 2.85 |  |  | 8.95
8 | COc1cncc(CN2CC[C@H](Oc3ccc4c(c3)CN(C3CCC(=O)NC3=O)C4=O)C2)c1 (stereo partly drawn) [3-(5-{[(3S)-1-[(5-methoxypyridin-3-yl)methyl]pyrrolidin-3-yl]oxy}-1-oxo-2,3-dihydro-1H-isoindol-2-yl)piperidine-2,6-dione] | 37.55 | 61.4 | 3320 |  |  | 48.12
9 | N#Cc1ccc(CN2CC[C@H](Oc3ccc4c(c3)CN(C3CCC(=O)NC3=O)C4=O)C2)nc1 (stereo partly drawn) [6-{[(3S)-3-{[2-(2,6-dioxopiperidin-3-yl)-1-oxo-2,3-dihydro-1H-isoindol-5-yl]oxy}pyrrolidin-1-yl]methyl}pyridine-3-carbonitrile] | 64 | 61 | > 10000 |  |  | 69.48
10 | O=C1CCC(N2C(=O)c3ccc(O[C@H]4CCN(Cc5ccc6ncccc6c5)C4)cc3C2=O)C(=O)N1 (stereo partly drawn) [2-(2,6-dioxopiperidin-3-yl)-5-{[(3S)-1-[(quinolin-6-yl)methyl]pyrrolidin-3-yl]oxy}-2,3-dihydro-1H-isoindole-1,3-dione] | 29.65 | 43.4 | 1030 |  |  | 21.24
11 | O=C1CCC(N2Cc3cc(O[C@H]4CCN(Cc5ccc6nc(N7CCC78CCOCC8)ncc6c5)C4)ccc3C2=O)C(=O)N1 (stereo partly drawn) [3-(5-{[(3S)-1-[(2-{7-oxa-1-azaspiro[3.5]nonan-1-yl}quinazolin-6-yl)methyl]pyrrolidin-3-yl]oxy}-1-oxo-2,3-dihydro-1H-isoindol-2-yl)piperidine-2,6-dione] | 37 | 11.4 | 12.6 |  |  | 13.59

Continued, in another order:

Row | 293T-LentiX WEE1-ePL Degradation 4 hr (Ymin) [1, 3] | DC50 [1] [nM] | EC50 ([2]; growth inhibition) [nM] | 293T-LentiX WEE1-ePL Degradation 4 hr (Ymin) [1, 4] | EC50 [2] [nM] | Compound | MKN45 Cell Prolif. 120 hr (Ymin-Obs) [2]
12 | 27.98 | 8.74 | 42.4 |  |  | O=C1CCC(N2Cc3ccc(O[C@H]4CCN(Cc5cnc6ccccc6c5)C4)cc3C2=O)C(=O)N1 (stereo partly drawn) [3-(1-oxo-6-{[(3S)-1-[(quinolin-3-yl)methyl]pyrrolidin-3-yl]oxy}-2,3-dihydro-1H-isoindol-2-yl)piperidine-2,6-dione] | 12.43
13 | 56 | 47.9 | > 10000 |  |  | CN1C(=O)COc2ccc(CN3CC[C@H](Oc4ccc5c(c4)CN(C4CCC(=O)NC4=O)C5=O)C3)cc21 (stereo partly drawn) [3-(5-{[(3S)-1-[(4-methyl-3-oxo-3,4-dihydro-2H-1,4-benzoxazin-6-yl)methyl]pyrrolidin-3-yl]oxy}-1-oxo-2,3-dihydro-1H-isoindol-2-yl)piperidine-2,6-dione] | 84.725
14 |  | 8.39 |  | 30.61 | 9.93 | O=C1CCC(N2Cc3cc(O[C@@H]4CN(Cc5ccc6nc([C@@H]7CCOC7)ccc6c5)CC4(F)F)ccc3C2=O)C(=O)N1 (stereo partly drawn) [3-(5-{[(3R)-4,4-difluoro-1-({2-[(3S)-oxolan-3-yl]quinolin-6-yl}methyl)pyrrolidin-3-yl]oxy}-1-oxo-2,3-dihydro-1H-isoindol-2-yl)piperidine-2,6-dione] | 9.159
15 |  | 11.9 |  | 26.93 | 3.54 | COC[C@@H]1CN(Cc2ccc3nc(C4CCN(C(C)=O)CC4)ncc3c2)C[C@H]1Oc1ccc2c(c1)CN([C@H]1CCC(=O)NC1=O)C2=O [(3S)-3-(5-{[(3S,4S)-1-{[2-(1-acetylpiperidin-4-yl)quinazolin-6-yl]methyl}-4-(methoxymethyl)pyrrolidin-3-yl]oxy}-1-oxo-2,3-dihydro-1H-isoindol-2-yl)piperidine-2,6-dione] | 9.28
16 | 31.9 | 1.62 | 3.12 |  |  | O=C1CC[C@H](N2Cc3cc(O[C@H]4CCN(Cc5ccc6nc(C7CCOCC7)ccc6c5)C4)ccc3C2=O)C(=O)N1 [(3S)-3-(5-{[(3S)-1-{[2-(oxan-4-yl)quinolin-6-yl]methyl}pyrrolidin-3-yl]oxy}-1-oxo-2,3-dihydro-1H-isoindol-2-yl)piperidine-2,6-dione] | 10.43
17 |  | 1.2 |  | 25.19 | 0.638 | COC[C@@H]1CN(Cc2cc(F)c3nc([C@H]4CCOC(C)(C)C4)ccc3c2)C[C@H]1Oc1ccc2c(c1)CN([C@H]1CCC(=O)NC1=O)C2=O [(3S)-3-(5-{[(3S,4S)-1-({2-[(4S)-2,2-dimethyloxan-4-yl]-8-fluoroquinolin-6-yl}methyl)-4-(methoxymethyl)pyrrolidin-3-yl]oxy}-1-oxo-2,3-dihydro-1H-isoindol-2-yl)piperidine-2,6-dione] | 8.947
18 | 32.5 | 6.28 | 5.05 |  |  | CO[C@H]1CC[C@H](Nc2ccc3cc(CN4CC[C@H](Oc5ccc6c(c5)CN(C5CCC(=O)NC5=O)C6=O)C4)ccc3n2)CC1 (stereo partly drawn) [3-(1-oxo-5-{[(3S)-1-[(2-{[(1r,4r)-4-methoxycyclohexyl]amino}quinolin-6-yl)methyl]pyrrolidin-3-yl]oxy}-2,3-dihydro-1H-isoindol-2-yl)piperidine-2,6-dione] | 8.26
19 | 30 | 1.12 | 1.14 |  |  | CO[C@H]1CC[C@@H](c2ccc3cc(CN4CC[C@H](Oc5ccc6c(c5)CN(C5CCC(=O)NC5=O)C6=O)C4)ccc3n2)CC1 (stereo partly drawn) [3-(1-oxo-5-{[(3S)-1-({2-[(1s,4s)-4-methoxycyclohexyl]quinolin-6-yl}methyl)pyrrolidin-3-yl]oxy}-2,3-dihydro-1H-isoindol-2-yl)piperidine-2,6-dione] | 9.583
